Key:
[1] = test system: mPGES-1-dependent PGE2 production in human blood; assay: Whole blood assay (LPS-stimulated human blood, PGE2 production); assay type: cell-based; conditions: 0.1 μg/ml LPS, 16 hours at 37° C., PGE2 by HTRF, read-out: hWBA
Text: The whole blood assay [described by Patrignani, P. et al, Journal of Pharmacology and Experimental Therapeutics, 1994, vol. 271, pp 1705-1712] was used as the whole cell assay for testing the compounds. Whole blood provides a protein and cell rich environment for the study of biochemical efficacy of anti-inflammatory compounds, such as prostaglandin synthase inhibitors. To study the inhibitory activities of these compounds, human blood was stimulated with lipopolysaccharide (LPS) for typically 16 hours to induce mPGES-1 expression, after which the concentration of produced PGE2 was measured by competitive-immuno assay (homogeneous time-resolved fluorescence, HTRF) as read out for effectiveness against mPGES-1-dependent PGE2 production.
Human blood collected from human volunteers in heparinized tubes was incubated with 100 μM acetyl salicylic acid, in order to inhibit the constitutively expressed cyclooxygenase (COX)-1/COX-2 enzymes, and then stimulated with 0.1 μg/ml LPS to induce the expression of enzymes along the COX-2 pathway, e.g. COX-2 and mPGES-1. 100 μL of this blood was added to the wells of a 384-well plate containing 1 μL DMSO solutions of compounds typically in the final concentration range 316 μM to 0.01 μM. Naproxen was used as reference compound. The mix was incubated at 37° C. for 16 hours. Plasma was harvested by centrifugation and stored at −70° C. until further analysis of PGE2 levels. For the calculations, the 0%-activity value was represented by blood treated with acetyl salicylic acid, LPS and the reference compound (1 mM Naproxen). The 100%-activity value was represented by blood treated with aspirin, LPS and DMSO. [Reference: Patrignani, P. et al, Journal of Pharmacology and Experimental Therapeutics, 1994, vol. 271, pp 1705-1712]. The PGE2 formed was quantified, after dilution in a weak potassium phosphate buffer (50 mM, pH 6.8) containing 0.2% BSA (w/v), by use of a commercial HTRF based kit (catalogue #62PG2PEC or #62P2APEC from Cisbio International). IC50 values were then determined using standard procedures.

human mPGES-1 = biological target: T1, human mPGES-1 (Homo sapiens, UniProt O14684); assay: Microsomal prostaglandin E synthase biochemical assay; conditions: microsomes containing human mPGES-1, PGH2 10.8 μM, GSH 2.5 mM, pH 6.8; average of at least n=2
T1 construct: host or cells: microsomes
T1 sequence (O14684 1-152): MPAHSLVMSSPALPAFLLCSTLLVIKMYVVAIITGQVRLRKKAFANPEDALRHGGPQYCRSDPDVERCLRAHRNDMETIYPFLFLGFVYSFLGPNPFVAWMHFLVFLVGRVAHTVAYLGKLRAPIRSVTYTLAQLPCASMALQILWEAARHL
Procedure: Compounds were tested as inhibitors of microsomal prostaglandin E synthase activity in microsomal prostaglandin E synthase assays and whole cell assays. These assays measure prostaglandin E2 (PGE2) synthesis, which is taken as a measure of prostaglandin E synthase activity. Microsomal prostaglandin E synthase biochemical assays used microsomal prostaglandin E synthase-1 in microsomal preparations. The source of the microsomes can be for example interleukin-1β-stimulated human A549 cells (which express human mPGES-1) or Sf9 cells transfected with plasmids encoding human mPGES-1 cDNA.
A solution of test compound was added to a diluted microsome preparation containing human mPGES-1 and pre-incubated for 15 minutes in potassium phosphate buffer pH 6.8 with cofactor glutathione (GSH). Corresponding solutions without test compound were used as positive controls, and corresponding solutions without test compound and without microsomes were used as negative controls. The enzymatic reaction was then started by addition of the substrate PGH2 in an organic solution (dry acetonitrile).
The typical reaction conditions of the enzymatic reaction were thus: Test compound: ranging from 60 μM to 0.002 μM, or zero in positive and negative controls; potassium phosphate buffer pH 6.8:50 mM; GSH: 2.5 mM; mPGES-1-containing microsomes: 2 μg/mL (sample and positive controls) or 0 μg/mL (negative control); PGH2: 10.8 μM; Acetonitrile: 7.7% (v/v); DMSO: 0.6% (v/v). The reaction was stopped after one minute by adding an acidic solution (pH 1.9) of ferric chloride and citrate (final concentrations 7 mM and 47 mM respectively), by which the PGH2 was sequestered (the PGH2 is reduced to mainly 12-hydroxy heptadecatrineoic acid (12-HHT) which is not detected by the subsequent PGE2 detection step). The resulting solution was then pH neutralized by addition of potassium phosphate buffer, prior to diluting an aliquot of the resulting solution in a weak potassium phosphate buffer (50 mM, pH 6.8) containing 0.2% BSA (w/v). [Adapted from Jacobsson et al., Proc. Natl. Acad. Sci. USA, 1999, vol. 96, pp. 7220-7225] The PGE2 formed was quantified by use of a commercial HTRF based kit (catalogue #62PG2PEC or #62P2APEC from Cisbio International). 100% activity was defined as the PGE2 production in positive controls subtracted by the PGE2 production in the negative controls. IC50 values were then determined using standard procedures.
The potency is expressed as IC50 and the value indicated is an average of at least n=2.

| SMILES | IC50 [1] [nM] | IC50 (human mPGES-1) [nM] |
| --- | --- | --- |
| NS(=O)(=O)c1ccccc1NS(=O)(=O)CCc1ccc(F)cc1OCC1CCC(F)(F)CC1 [Example 8, 2-{[(2-{2-[(4,4-Difluorocyclohexyl)methoxy]-4-fluorophenyl}ethyl)sulfonyl]amino}benzenesulfonamide] | 149 | 7.6 |
| NS(=O)(=O)c1ccccc1NS(=O)(=O)CCc1ccc(C#Cc2ccccc2)cc1OCC1CCOCC1 [Example 9, 2-[({2-[4-(Phenylethynyl)-2-(tetrahydro-2H-pyran-4-ylmethoxy)phenyl]ethyl}sulfonyl)amino]benzenesulfonamide] | 0.911 | 3.4 |
| Cc1ccc(CCS(=O)(=O)Nc2ccccc2S(N)(=O)=O)c(OCC2CCC(F)(F)CC2)c1 [Example 7, 2-{[(2-{2-[(4,4-Difluorocyclohexyl)methoxy]-4-methylphenyl}ethyl)sulfonyl]amino}benzenesulfonamide] | 54.1 | 7.2 |
| NS(=O)(=O)c1ccccc1NS(=O)(=O)CCc1ccc(C(F)(F)F)cc1OCC1CCOCC1 [Example 3, 2-[({2-[2-(Tetrahydro-2H-pyran-4-ylmethoxy)-4-(trifluoromethyl)phenyl]ethyl}sulfonyl)amino]benzenesulfonamide] | 26.6 | 4 |
| CC(C)C#Cc1ccc(CCS(=O)(=O)Nc2ccccc2S(N)(=O)=O)c(OCC2CCOCC2)c1 [Example 13, 2-[({2-[4-(3-methylbut-1-yn-1-yl)-2-(tetrahydro-2H-pyran-4-ylmethoxy)phenyl]ethyl}sulfonyl)amino]benzenesulfonamide] | 1.85 | 3.4 |
| Cc1ccc(C#Cc2ccc(CCS(=O)(=O)Nc3ccccc3S(N)(=O)=O)c(OCC3CCOCC3)c2)cc1 [Example 14, 2-{[(2-{4-[(4-Methylphenyl)ethynyl]-2-(tetrahydro-2H-pyran-4-ylmethoxy)phenyl}ethyl)sulfonyl]amino}benzenesulfonamide] | 0.987 | 2.1 |
| NS(=O)(=O)c1ccccc1NS(=O)(=O)CCc1ccc(Br)cc1OCC1CCOCC1 [Example 1, 2-[({2-[4-Bromo-2-(tetrahydro-2H-pyran-4-ylmethoxy)phenyl]ethyl}sulfonyl)amino]benzenesulfonamide] | 63.9 | 3.4 |
| NS(=O)(=O)c1ccccc1NS(=O)(=O)CCc1ccc(Cl)cc1OCC1CCC(F)(F)CC1 [Example 6, 2-{[(2-{4-Chloro-2-[(4,4-difluorocyclohexyl)methoxy]phenyl}ethyl)sulfonyl]amino}benzenesulfonamide] | 11.5 | 2.7 |
| CC(C)(C)C#Cc1ccc(CCS(=O)(=O)Nc2ccccc2S(N)(=O)=O)c(OCC2CCOCC2)c1 [Example 15, 2-[({2-[4-(3,3-Dimethylbut-1-yn-1-yl)-2-(tetrahydro-2H-pyran-4-ylmethoxy)phenyl]ethyl}sulfonyl)amino]benzenesulfonamide] | 17.1 | < 2.5 |

Second part, the compound after the results:

| IC50 [1] [nM] | IC50 (human mPGES-1) [nM] | SMILES |
| --- | --- | --- |
| 7.92 | < 2.2 | NS(=O)(=O)c1ccccc1NS(=O)(=O)CCc1ccc(C#CC2CC2)cc1OCC1CCOCC1 [Example 10, 2-[({2-[4-(Cyclopropylethynyl)-2-(tetrahydro-2H-pyran-4-ylmethoxy)phenyl]ethyl}sulfonyl)amino]benzenesulfonamide] |
| 214 | 19.5 | NS(=O)(=O)c1cc(CO)ccc1NS(=O)(=O)CCc1ccc(F)cc1OCC1CCOCC1 [Example 17, 2-[({2-[4-fluoro-2-(tetrahydro-2H-pyran-4-ylmethoxy)phenyl]ethyl}sulfonyl)amino]-5-(hydroxymethyl)benzenesulfonamide] |
| 24.9 | 3.5 | NS(=O)(=O)c1ccccc1NS(=O)(=O)CCc1ccc(Cl)cc1OCC1CCOCC1 [Example 2, 2-[({2-[4-Chloro-2-(tetrahydro-2H-pyran-4-ylmethoxy)phenyl]ethyl}sulfonyl)amino]benzenesulfonamide] |
| 0.987 | 2.1 | NS(=O)(=O)c1ccccc1NS(=O)(=O)CCc1ccc(C#CC2CCCC2)cc1OCC1CCOCC1 [Example 11, 2-[({2-[4-(Cyclopentylethynyl)-2-(tetrahydro-2H-pyran-4-ylmethoxy)phenyl]ethyl}sulfonyl)amino]benzenesulfonamide] |
| 29 | 5.6 | NS(=O)(=O)c1cc(CO)ccc1NS(=O)(=O)CCc1ccc(Cl)cc1OCC1CCOCC1 [Example 16, 2-[({2-[4-chloro-2-(tetrahydro-2H-pyran-4-ylmethoxy)phenyl]ethyl}sulfonyl)amino]-5-(hydroxymethyl)benzenesulfonamide] |
| 1.84 | < 2.3 | NS(=O)(=O)c1ccccc1NS(=O)(=O)CCc1ccc(C#CC2CCC2)cc1OCC1CCOCC1 [Example 12, 2-[({2-[4-(cyclobutylethynyl)-2-(tetrahydro-2H-pyran-4-ylmethoxy)phenyl]ethyl}sulfonyl)amino]benzenesulfonamide] |
| 154 | 15 | Cc1ccc(CCS(=O)(=O)Nc2ccccc2S(N)(=O)=O)c(OCC2CCOCC2)c1 [Example 4, 2-[({2-[4-methyl-2-(tetrahydro-2H-pyran-4-ylmethoxy)phenyl]ethyl}sulfonyl)amino]benzenesulfonamide] |
| 89.7 | 16 | NS(=O)(=O)c1ccccc1NS(=O)(=O)CCc1ccc(F)cc1OCC1CCOCC1 [Example 5, 2-[({2-[4-Fluoro-2-(tetrahydro-2H-pyran-4-ylmethoxy)phenyl]ethyl}sulfonyl)amino]benzenesulfonamide] |
